One data set deals with aphids. As to conditions: dose of 100 ng/aphid; cited from earlier work.
The next data set has as its system whiteflies. Conditions: vapor; cited from earlier work.
For data set [1], the target named is T1, recombinant (E)-β-farnesene synthase (SEQ ID NO:2) (Mentha piperita, UniProt O48935).
T1 construct: made in house; host or cells: E. coli XL1-Blue harboring pBluescript clone p43
T1 sequence (O48935 1-550): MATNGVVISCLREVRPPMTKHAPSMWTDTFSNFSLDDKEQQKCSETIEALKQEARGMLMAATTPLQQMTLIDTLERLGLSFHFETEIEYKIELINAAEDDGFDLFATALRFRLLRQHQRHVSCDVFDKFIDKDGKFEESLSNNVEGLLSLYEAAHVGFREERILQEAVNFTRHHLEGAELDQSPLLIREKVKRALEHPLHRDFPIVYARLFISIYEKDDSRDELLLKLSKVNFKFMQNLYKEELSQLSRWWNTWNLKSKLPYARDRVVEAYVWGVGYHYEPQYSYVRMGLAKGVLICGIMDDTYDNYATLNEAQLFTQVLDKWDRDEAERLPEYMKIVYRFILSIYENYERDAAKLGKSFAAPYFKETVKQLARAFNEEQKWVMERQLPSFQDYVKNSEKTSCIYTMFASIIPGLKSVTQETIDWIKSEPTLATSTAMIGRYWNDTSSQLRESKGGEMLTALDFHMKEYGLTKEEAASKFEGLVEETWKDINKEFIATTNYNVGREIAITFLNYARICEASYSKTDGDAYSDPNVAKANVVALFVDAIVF
The data set is described as follows: Kinetic characterization of recombinant, partially purified (E)-β-farnesene synthase (sesquiterpene/monoterpene/diterpene synthase assay). It is filed as biochemical, peppermint (Mentha piperita).

Substrate in data set [2]: CC(C)=CCC/C(C)=C/CC/C(C)=C/CO[P@@](=O)(O)OP(=O)(O)O
Described as above. It counts as biochemical, peppermint (Mentha piperita). As to conditions: other: substrate range 0.31 to 20 μM, saturating Mg++; double reciprocal plot.

Data on 4 molecules can be found in patent US6846659B2, “Isolation and bacterial expression of a sesquiterpene synthase cDNA clone from peppermint (Mentha x piperita, L.) that produces the aphid alarm pheromone (E)-β-farnesene” (Washington State University Research Foundation, priority 1997, dated 2005).

The Km is the substrate concentration at which the rate is half of its maximum.

As for `C=CC(=C)CC/C=C(\C)CCC=C(C)C` [(E)-β-farnesene], in the data set with aphids, the “acute toxicity to aphids” value was “acutely toxic”. In addition, the toxicity to whiteflies entry with whiteflies is reported as “toxic”. As to `CC(C)=CCC/C(C)=C/COP(=O)(O)OP(=O)(O)O` [GDP, geranyl diphosphate], the Km in data set [1] (substrate range 0.31 to 20 μM, saturating Mg++, double reciprocal plot) was found to be 1500 nM. Consider `CC(C)=CCC/C(C)=C/CC/C(C)=C/CC/C(C)=C/COP(=O)(O)OP(=O)(O)O` [[1-^3H]GGDP, geranylgeranyl diphosphate], for which the “activity of the synthase with the substrate analog” value in data set [1] (C20 substrate analog, 10 μM) was “inactive”.

B1: recombinant (E)-β-farnesene synthase (SEQ ID NO:2) (Mentha x piperita) (protein)
chain: T1 sequence (O48935 1-550)
notes: made in house; host or cells: E. coli XL1-Blue harboring pBluescript clone p43
On to B1, for which the Michaelis constant (Km) in data set [2] stood at 0.6 µM.
